Among the data in ChEMBL document CHEMBL2202958, “Development of potent macrocyclic inhibitors of genotype 3a HCV NS3/4A protease” (Bioorg Med Chem Lett, 2012) are Ki, IC50 and concentration values, retold here.

Data set [1] can be described thus: Inhibition of HCV3a NS3/4A protease. Also noted: species or system Hepatitis C virus subtype 3a.
Data set [2] has as its system Hepatitis C virus. Briefly: Antiviral activity against HCV1b con1 infected in human Huh-7 cells assessed as inhibition of viral replication after 24 hrs in presence of 50% normal human serum. The note with it: Con1, Huh-7, 24 h. The format is functional, organism-based, Hepacivirus hominis.
The nature of data set [3]: Inhibition of HCV3a NS3/4A protease by time-resolved fluorescence assay. Also noted: species or system Hepatitis C virus subtype 3a.
For data set [4], the system named is Hepatitis C virus. The data set is described as follows: Inhibition of HCV1b NS3/4A protease A156T mutant by time-resolved fluorescence assay. Also noted: species or system Hepatitis C virus subtype 1b.
In data set [5] the test system is Hepatitis C virus. Briefly: Inhibition of HCV1b NS3/4A protease R155K mutant by time-resolved fluorescence assay. Also noted: species or system Hepatitis C virus subtype 1b.
A short description of data set [6]: Inhibition of HCV1b BK NS3/4A protease expressed in Escherichia coli after 1 hr by time-resolved fluorescence assay. Also noted: species or system Hepatitis C virus (isolate BK).
Data set [7] in a line: Drug level in Sprague-Dawley rat liver at 5 mg/kg, po after 4 hrs. Also noted: dose 5 mg/kg, route oral. The conditions noted are these: read-out: Drug uptake. The class given is ADME, organism-based.
Data set [8] deals with Hepatitis C virus. The data set is described as follows: Antiviral activity against HCV1b con1 infected in human Huh-7 cells assessed as inhibition of viral replication after 24 hrs in presence of 10% fetal bovine serum. The conditions noted are these: Con1, Huh-7, 24 h. The class given is functional, organism-based, Hepacivirus hominis.
The test system of data set [9] is Hepatitis C virus. The data set is described as follows: Inhibition of HCV1b NS3/4A protease. Also noted: species or system Hepatitis C virus subtype 1b.
Data set [10] deals with Hepatitis C virus. Briefly: Antiviral activity against HCV1b by cell based replicon assay. The format is functional, organism-based, Hepacivirus hominis. The conditions noted are these: genotype 1b.

For `CC[C@@H]1C[C@]1(NC(=O)[C@@H]1C[C@@H]2CN1C(=O)[C@H](C(C)(C)C)NC(=O)OCC(C)(C)CCCCc1cccc3c1CN(C3)C(=O)O2)C(=O)NS(=O)(=O)C1CC1` [VANIPREVIR], the Ki in data set [1] worked out at 54 nM.
With `C=C[C@@H]1C[C@]1(NC(=O)[C@@H]1C[C@@H]2CN1C(=O)[C@H](C1CCCC1)NC(=O)OCC(C)(C)CCCc1cc3c(cc(OCC)nc3cc1OC)O2)C(=O)NS(=O)(=O)C1CC1`, the half-maximal inhibitory concentration (IC50) came out at 11 nM with Hepatitis C virus [2] and 2 nM with Hepatitis C virus [8]. Besides, the Ki in data set [3] is 2.2 nM; in the data set with Hepatitis C virus [4], 41 nM; with Hepatitis C virus [5] it was 1.3 nM; in data set [6] it was 0.03 nM. Also, the concentration at 4 h in data set [7] is 35 µM.
For the compound `C=C[C@@H]1C[C@]1(NC(=O)[C@@H]1C[C@@H]2CN1C(=O)[C@H](C1CCCCC1)NC(=O)OCC(C)(C)CCCc1cc3c(cc(N(C)C(=O)OCC)nc3cc1OC)O2)C(=O)NS(=O)(=O)C1CC1`, the IC50 amounted to 27 nM in the data set with Hepatitis C virus [2] and 5 nM in the data set with Hepatitis C virus [8]. The Ki in data set [3] was 4.3 nM; with Hepatitis C virus [4], 87 nM; in the data set with Hepatitis C virus [5], 3.3 nM; in [6] it was 0.03 nM. Further, the concentration at 4 h in data set [7] is 42 µM.
Regarding `C=C[C@@H]1C[C@]1(NC(=O)[C@@H]1C[C@@H]2CN1C(=O)[C@H](C1CCCC1)NC(=O)OCC(C)(C)CCCc1cc3c(nc4cc(OC)ccc4c3cc1OC)O2)C(=O)NS(=O)(=O)C1CC1`, the IC50 in the data set on Hepatitis C virus [2] worked out at 27 nM; in the data set with Hepatitis C virus [8], 4 nM. Besides, the Ki in data set [3] was 0.8 nM; in the data set with Hepatitis C virus [4] it was 16 nM; with Hepatitis C virus [5], 0.4 nM; in data set [6], less than 0.02 nM. Moreover, in data set [7], the concentration at 4 h came to 35 µM.
As to `C=C[C@@H]1C[C@]1(NC(=O)[C@@H]1C[C@@H]2CN1C(=O)[C@H](C1CCCCC1)NC(=O)OCC(C)(C)CCCc1cc3c(cc(OCc4csc(C)n4)nc3cc1OC)O2)C(=O)NS(=O)(=O)C1CC1`, the 50% inhibitory concentration (IC50) is 16 nM in the data set with Hepatitis C virus [2] and 3.5 nM in the data set with Hepatitis C virus [8]. Further, the Ki in data set [3] came to 3.1 nM; in the data set with Hepatitis C virus [4] it was 88 nM; in the data set with Hepatitis C virus [5], 2.1 nM; in data set [6], 0.1 nM. For the same compound, the concentration at 4 h in [7] turned out to be 19 µM.
On to `C=C[C@@H]1C[C@]1(NC(=O)[C@@H]1C[C@@H]2CN1C(=O)[C@H](C1CCCC1)NC(=O)OCC(C)(C)CCCc1cc3c(cc(OCc4csc(C)n4)nc3cc1OC)O2)C(=O)NS(=O)(=O)C1CC1`, for which the half-maximal inhibitory concentration (IC50) in the data set with Hepatitis C virus [2] was determined as 26 nM; in the data set on Hepatitis C virus [8] it was 5 nM. The inhibitory constant (Ki) in data set [3] was found to be 1.6 nM; in [6] it was 0.09 nM. Besides, in data set [7], the concentration at 4 h is 0.8 µM.
With `C=C[C@@H]1C[C@]1(NC(=O)[C@@H]1C[C@@H]2CN1C(=O)[C@H](C(C)C)NC(=O)N(C)CCCCCc1cc3c(cc(-c4ccccc4)nc3cc1OC)O2)C(=O)NS(=O)(=O)C1CC1`, the Ki with Hepatitis C virus [9] was less than 0.16 nM; in data set [1], 5.8 nM. For the same compound, in data set [7], the concentration at 4 h was determined as 0.304 µM.
With `C=C[C@@H]1C[C@]1(NC(=O)[C@@H]1C[C@@H]2CN1C(=O)[C@H](C1CCCC1)NC(=O)OCC(C)(C)CCCc1cc3c(nc4cc(C)ccc4c3cc1OC)O2)C(=O)NS(=O)(=O)C1CC1`, the IC50 in the data set with Hepatitis C virus [2] turned out to be 15 nM; with Hepatitis C virus [8] it was 4 nM. Further, the Ki was 1.9 nM in [3] and less than 0.02 nM in [6]. For the same compound, in data set [7], the concentration at 4 h came to 16 µM.
With `C=C[C@@H]1C[C@]1(NC(=O)[C@@H]1C[C@@H]2CN1C(=O)[C@H](C(C)(C)C)NC(=O)OCCC/C=C/c1ccc3ccnc(c3c1)O2)C(=O)NS(=O)(=O)C1CC1`, the Ki in the data set on Hepatitis C virus [9] was 0.04 nM; in [1] it was 475 nM. The compound also returned an IC50 in the data set on Hepatitis C virus [10] of 4.5 nM.
For `C=C[C@@H]1C[C@]1(NC(=O)[C@@H]1C[C@@H]2CN1C(=O)[C@H](C1CCCC1)NC(=O)OCC(C)(C)C/C=C/c1cc3c(cc(-c4ccccc4)nc3cc1OC)O2)C(=O)NS(=O)(=O)C1CC1`, the Ki with Hepatitis C virus [9] is less than 0.16 nM; in data set [1] it was 17 nM. The concentration at 4 h in data set [7] worked out at 41 µM.
Take `C=C[C@@H]1C[C@]1(NC(=O)[C@@H]1C[C@@H]2CN1C(=O)[C@H](C1CCCCC1)NC(=O)OCC(C)(C)CCCc1cc3c(cc(OC)nc3cc1OC)O2)C(=O)NS(=O)(=O)C1CC1`: the IC50 with Hepatitis C virus [2] came out at 19 nM; in the data set on Hepatitis C virus [8], 4 nM. The results for the Ki in [3] and in data set [6] were 4.1 nM and 0.04 nM, respectively. Further, in data set [7], the concentration at 4 h worked out at 5.4 µM.
The corresponding values for `C=C[C@@H]1C[C@]1(NC(=O)[C@@H]1C[C@@H]2CN1C(=O)[C@H](C1CCCC1)NC(=O)OCC(C)(C)CCCc1cc3c(nc4cc(F)ccc4c3cc1OC)O2)C(=O)NS(=O)(=O)C1CC1` are 43 nM, 9 nM, 0.9 nM, less than 0.02 nM and 22 µM.
The corresponding values for `C=C[C@@H]1C[C@]1(NC(=O)[C@@H]1C[C@@H]2CN1C(=O)[C@H](C1CCCC1)NC(=O)OCC(C)(C)CCCc1cc3c(nc4cc(C#N)ccc4c3cc1OC)O2)C(=O)NS(=O)(=O)C1CC1` are 13 nM, 4 nM, 0.8 nM, less than 0.02 nM and 7.5 µM.

Broadly, the Ki is the dissociation constant of the complex between target and ligand, obtained from inhibition or displacement. High values mean weaker binding, low ones tighter binding. Usually IC50 stands for the midpoint of a concentration-inhibition curve.
